Measured values as given in US12370256B2, “Activation of resident memory T cells for the treatment of cancer” (Regents of the University of Minnesota, priority 2017, dated 2025).

Test system: B16 melanoma
Type: in vivo, C57B/6 mice

SIINFEKL (Synthetically generated peptide)
tumor growth (tumor size) (peptide alone, 0.5 μg in 30 μl PBS into established palpable tumor, once or twice 2 days apart, no adjuvant): significant inhibition of a rapidly growing tumor | tumor size and survival, peptide combined with PD-L1 blockade (peptide twice intratumorally over 48 h plus three i.v. injections of anti-PDL1): synergizes with PD-L1 blockade
